Laboratory results from patent publication US9695155B2, “Herbicidal substituted pyrimidinyloxy benzene compounds” (E. I. DU PONT DE NEMOURS AND COMPANY, priority 2013, dated 2017).

How the values were obtained:
soybean = test: Test C postemergence; format: in vivo, Glycine max; conditions: Glycine max, post-emergence
How it was run: (§1)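 Greenhouse herbicide screen. Pre: seeded loam/sand, sprayed at planting. Post: 1–4 leaf plants (2–18 cm) in peat-based mix. Formulation: solvent mixture + surfactant, non-phytotoxic. Readout: visual % control vs untreated, 13–15 d; dash = not tested.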

waterhemp = test: Test C postemergence; format: in vivo, Amaranthus rudis; conditions: Amaranthus tuberculatus, post-emergence
How it was run: as §1

barnyardgrass [1] = test: Test A preemergence; format: in vivo, Echinochloa crus-galli; conditions: Echinochloa crus-galli, pre-emergence, 240 h, 0 to 100 scale where 0 is no effect and 100 is complete control
How it was run: (§2)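 Greenhouse pot test, loam/sand soil. Formulation: non-phytotoxic solvent mix plus surfactant. Pre: directed spray onto soil after sowing. Post: plants at 1–2 leaf, 2–10 cm. Rated visually vs untreated controls at ~10 d, 0 (no effect) to 100 (complete control).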

velvetleaf [2] = test: Test C postemergence; format: in vivo, Abutilon theophrasti; conditions: Abutilon theophrasti, post-emergence
How it was run: as §1

lambsquarters = test: Test C postemergence; format: in vivo, Chenopodium album; conditions: Chenopodium album, post-emergence
How it was run: as §1

barnyardgrass [3] = test: Test A postemergence; format: in vivo, Echinochloa crus-galli; conditions: Echinochloa crus-galli, post-emergence, 240 h, 0 to 100 scale where 0 is no effect and 100 is complete control
How it was run: as §2

velvetleaf [4] = test: Test C preemergence; format: in vivo, Abutilon theophrasti; conditions: Abutilon theophrasti, pre-emergence, preemergence, read-out: Velvetleaf plant response rating
How it was run: as §1

oilseed rape = test: Test C postemergence; format: in vivo, Brassica napus; conditions: Brassica napus, post-emergence
How it was run: as §1

large (Lg) crabgrass [5] = test: Test C preemergence; format: in vivo, Digitaria sanguinalis; conditions: Digitaria sanguinalis, pre-emergence
How it was run: as §1

large (Lg) crabgrass [6] = test: Test C postemergence; format: in vivo, Digitaria sanguinalis; conditions: Digitaria sanguinalis, post-emergence
How it was run: as §1

sedge, umbrella = test: Test B flooded paddy test; format: in vivo, Cyperus difformis; conditions: Cyperus difformis, Flood, 250 g ai/ha; 0 to 100 scale where 0 is no effect and 100 is complete control; read-out: Plant response rating, Sedge, Umbrella
How it was run: (§3)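 Visual ratings on a 0 to 100 scale, where 100 means complete control, compared treated plants with controls after 13 to 15 days in a greenhouse. Treatment went into paddy water 3 cm deep over the soil, applied to plants at the 2-leaf stage.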

corn = test: Test A postemergence; format: in vivo, Zea mays; conditions: Zea mays, post-emergence, 240 h, 0 to 100 scale where 0 is no effect and 100 is complete control
How it was run: as §2

johnsongrass = test: Test C preemergence; format: in vivo, Sorghum halepense; conditions: Sorghum halepense, pre-emergence, preemergence, read-out: Johnsongrass plant response rating
How it was run: as §1

rice = test: Test B flooded paddy test; format: in vivo, Oryza sativa; conditions: Oryza sativa; Flood, 250 g ai/ha; 0 to 100 scale where 0 is no effect and 100 is complete control; read-out: Plant response rating, Rice
How it was run: as §3

galium = test: Test C preemergence; format: in vivo, Galium aparine; conditions: Galium, pre-emergence
How it was run: as §1

[7] = 16 g ai/ha, scale 0 to 100 (0 no effect, 100 complete control)
[8] = 62 g ai/ha, scale 0 (no effect) to 100 (complete control)
[9] = 125 g ai/ha, scale 0 (no effect) to 100 (complete control)

Q: What does the source list for FC(F)(F)COc1cnn(-c2ccccc2Oc2ncc(Cl)cn2)c1 [Compound 138, 5-chloro-2-[2-[4-(2,2,2-trifluoroethoxy)-1H-pyrazol-1-yl]phenoxy]pyrimidine]?
A: Soybean plant response rating (crop injury, 0-100 scale) at 16 g/ha (soybean; 16 g ai/ha, postemergence, 0 is no effect, 100 is complete control): 40%; Soybean plant response rating (crop injury, 0-100 scale) at 125 g/ha (soybean; 125 g ai/ha, postemergence, visual rating, scale 0 to 100 (0 no effect, 100 complete control), read-out: Plant response rating, Soybean): 95%; Soybean plant response rating (crop injury, 0-100 scale) at 62 g/ha (soybean; Postemergence, 62 g ai/ha, scale 0 to 100 (0 no effect, 100 complete control)): 65%; pest or weed control at 16 g/ha (waterhemp; 16 g ai/ha, postemergence, 0 is no effect, 100 is complete control, read-out: Plant response rating (0 to 100), Waterhemp): 60%; pest or weed control at 125 g/ha (waterhemp; 125 g ai/ha, postemergence, visual rating, scale 0 to 100 (0 no effect, 100 complete control), read-out: Plant response rating, Waterhemp): 85%; pest or weed control at 62 g/ha (waterhemp; Postemergence, 62 g ai/ha, scale 0 to 100 (0 no effect, 100 complete control), read-out: Plant response rating, Waterhemp): 75%; pest or weed control at 125 g/ha (barnyardgrass [1]; 125 g ai/ha, read-out: Plant response rating, Barnyardgrass): 80%; pest or weed control at 500 g/ha (barnyardgrass [1]; 500 g ai/ha, read-out: Barnyardgrass plant response rating): 100%; pest or weed control at 16 g/ha (velvetleaf [2]; 16 g ai/ha, postemergence, 0 is no effect, 100 is complete control, read-out: Plant response rating (0 to 100), Velvetleaf): 30%; pest or weed control at 125 g/ha (velvetleaf [2]; 125 g ai/ha, postemergence, visual rating, scale 0 to 100 (0 no effect, 100 complete control), read-out: Plant response rating, Velvetleaf): 55%; pest or weed control at 62 g/ha (velvetleaf [2]; Postemergence, 62 g ai/ha, scale 0 to 100 (0 no effect, 100 complete control), read-out: Plant response rating, Velvetleaf): 20%; pest or weed control at 16 g/ha (lambsquarters; 16 g ai/ha, postemergence, 0 is no effect, 100 is complete control, read-out: Plant response rating (0 to 100), Lambsquarters): 20%; pest or weed control at 125 g/ha (lambsquarters; 125 g ai/ha, postemergence, visual rating, scale 0 to 100 (0 no effect, 100 complete control), read-out: Plant response rating, Lambsquarters): 75%; pest or weed control at 62 g/ha (lambsquarters; Postemergence, 62 g ai/ha, scale 0 to 100 (0 no effect, 100 complete control), read-out: Plant response rating, Lambsquarters): 60%; pest or weed control at 125 g/ha (barnyardgrass [3]; 125 g ai/ha, read-out: Barnyardgrass plant response rating): 80%; pest or weed control at 500 g/ha (barnyardgrass [3]; 500 g ai/ha, read-out: Plant response rating, Barnyardgrass): 100%; pest or weed control at 16 g/ha (velvetleaf [4]; [7]): 60%; pest or weed control at 62 g/ha (velvetleaf [4]; [8]): 98%; pest or weed control at 125 g/ha (velvetleaf [4]; [9]): 100%; plant injury at 16 g/ha (oilseed rape; 16 g ai/ha, postemergence, 0 is no effect, 100 is complete control, read-out: Plant response rating (0 to 100), Oilseed Rape): 5%; plant injury at 125 g/ha (oilseed rape; 125 g ai/ha, postemergence, visual rating, scale 0 to 100 (0 no effect, 100 complete control), read-out: Plant response rating, Oilseed Rape): 80%; plant injury at 62 g/ha (oilseed rape; Postemergence, 62 g ai/ha, scale 0 to 100 (0 no effect, 100 complete control), read-out: Plant response rating, Oilseed Rape): 60%; pest or weed control at 16 g/ha (large (Lg) crabgrass [5]; 16 g ai/ha, preemergence, scale 0 to 100 (0 no effect, 100 complete control), read-out: Crabgrass, Large plant response rating): 100%; pest or weed control at 62 g/ha (large (Lg) crabgrass [5]; 62 g ai/ha, preemergence, scale 0 (no effect) to 100 (complete control), read-out: Crabgrass, Large plant response rating): 100%; pest or weed control at 125 g/ha (large (Lg) crabgrass [5]; 125 g ai/ha, preemergence, scale 0 (no effect) to 100 (complete control), read-out: Crabgrass, Large plant response rating): 100%; pest or weed control at 31 g/ha (large (Lg) crabgrass [5]; Preemergence, 31 g ai/ha, scale 0 to 100, 0 no effect, 100 complete control, read-out: Plant response rating, Crabgrass, Large): 90%; pest or weed control at 16 g/ha (large (Lg) crabgrass [6]; 16 g ai/ha, postemergence, 0 is no effect, 100 is complete control, read-out: Plant response rating (0 to 100), Crabgrass, Large): 10%; pest or weed control at 125 g/ha (large (Lg) crabgrass [6]; 125 g ai/ha, postemergence, visual rating, scale 0 to 100 (0 no effect, 100 complete control), read-out: Plant response rating, Crabgrass, Large): 15%; pest or weed control at 62 g/ha (large (Lg) crabgrass [6]; Postemergence, 62 g ai/ha, scale 0 to 100 (0 no effect, 100 complete control), read-out: Plant response rating, Crabgrass, Large): 15%; pest or weed control at 250 g/ha (sedge, umbrella): 75%; plant injury at 125 g/ha (corn; 125 g ai/ha, read-out: Corn plant response rating): 60%; Corn plant response rating (crop injury, 0 = no effect, 100 = complete kill) at 500 g/ha (corn; 500 g ai/ha): 90%; pest or weed control at 16 g/ha (johnsongrass; [7]): 0%; pest or weed control at 62 g/ha (johnsongrass; [8]): 40%; pest or weed control at 125 g/ha (johnsongrass; [9]): 65%; plant injury at 250 g/ha (rice): 0%; pest or weed control at 16 g/ha (galium; 16 g ai/ha, preemergence, scale 0 to 100 (0 no effect, 100 complete control), read-out: Galium plant response rating): 90%; pest or weed control at 62 g/ha (galium; 62 g ai/ha, preemergence, scale 0 (no effect) to 100 (complete control), read-out: Galium plant response rating): 90%; pest or weed control at 125 g/ha (galium; 125 g ai/ha, preemergence, scale 0 (no effect) to 100 (complete control), read-out: Galium plant response rating): 100%; pest or weed control at 31 g/ha (galium; Preemergence, 31 g ai/ha, scale 0 to 100, 0 no effect, 100 complete control, read-out: Plant response rating, Galium): 90%
